# PubChem BioAssay (NCI)
#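 All cell lines were grown in 96-well plates and treated with compound for 48 hours. Definition used: TGI = concentration required for complete inhibition of growth.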
# Key:
# Assay in all cases: NCI anticancer screen, dose series, 48 h
# NCI-H226 lung = tested on: NCI-H226 lung
# LXFL 529 NSCLC = tested on: LXFL 529 NSCLC
# UACC-257 melanoma = tested on: UACC-257 melanoma
# IGROV1 ovarian = tested on: IGROV1 ovarian
# SW-620 colon = tested on: SW-620 colon
# CCRF-CEM leukemia = tested on: CCRF-CEM leukemia
# SNB-75 CNS = tested on: SNB-75 CNS
# U251 CNS = tested on: U251 CNS
# HCT-116 colon = tested on: HCT-116 colon
# MOLT-4 leukemia = tested on: MOLT-4 leukemia
# NCI-H522 lung = tested on: NCI-H522 lung
# RPMI-8226 leukemia = tested on: RPMI-8226 leukemia
# EKVX NSCLC = tested on: EKVX NSCLC
# OVCAR-8 ovarian = tested on: OVCAR-8 ovarian
# KM12 colon = tested on: KM12 colon
# NCI-H460 lung = tested on: NCI-H460 lung
# HOP-18 NSCLC = tested on: HOP-18 NSCLC
# DLD-1 colon = tested on: DLD-1 colon
# HOP-62 NSCLC = tested on: HOP-62 NSCLC
# ACHN renal = tested on: ACHN renal
# UO-31 renal = tested on: UO-31 renal
# A498 renal = tested on: A498 renal
# XF 498 CNS = tested on: XF 498 CNS
# SNB-19 CNS = tested on: SNB-19 CNS
# HT29 colon = tested on: HT29 colon
# KM20L2 colon = tested on: KM20L2 colon
# M14 melanoma = tested on: M14 melanoma
# SN12C renal = tested on: SN12C renal
# MALME-3M melanoma = tested on: MALME-3M melanoma
# 786-0 renal = tested on: 786-0 renal
# SK-MEL-28 melanoma = tested on: SK-MEL-28 melanoma
# RXF 393 renal = tested on: RXF 393 renal
# HCC-2998 colon = tested on: HCC-2998 colon
# SK-MEL-5 melanoma = tested on: SK-MEL-5 melanoma
# M19-MEL melanoma = tested on: M19-MEL melanoma
# SNB-78 CNS = tested on: SNB-78 CNS
# SF-268 CNS = tested on: SF-268 CNS
# A549 NSCLC = tested on: A549 NSCLC
# SF-295 CNS = tested on: SF-295 CNS
# SK-OV-3 ovarian = tested on: SK-OV-3 ovarian
# OVCAR-5 ovarian = tested on: OVCAR-5 ovarian
# K-562 leukemia = tested on: K-562 leukemia
# TK-10 renal = tested on: TK-10 renal
# SK-MEL-2 melanoma = tested on: SK-MEL-2 melanoma
# HL-60(TB) leukemia = tested on: HL-60(TB) leukemia
# SF-539 CNS = tested on: SF-539 CNS
# COLO 205 colon = tested on: COLO 205 colon
# OVCAR-3 ovarian = tested on: OVCAR-3 ovarian
# DMS 273 small cell lung = tested on: DMS 273 small cell lung
# LOX IMVI melanoma = tested on: LOX IMVI melanoma
# UACC-62 melanoma = tested on: UACC-62 melanoma
# DMS 114 small cell lung = tested on: DMS 114 small cell lung
# CAKI-1 renal = tested on: CAKI-1 renal
# SR leukemia = tested on: SR leukemia
# NCI-H23 lung = tested on: NCI-H23 lung
# OVCAR-4 ovarian = tested on: OVCAR-4 ovarian
# HCT-15 colon = tested on: HCT-15 colon
# HOP-92 NSCLC = tested on: HOP-92 NSCLC
smiles,measurement,setting,value
CC(C)(C)C(=O)/C=C/c1ccc(Oc2ccccc2)cc1,TGI,NCI-H226 lung,36.2 µM
same,TGI,LXFL 529 NSCLC,28.9 µM
same,TGI,UACC-257 melanoma,42.6 µM
same,TGI,IGROV1 ovarian,> 100 µM
same,TGI,SW-620 colon,36.1 µM
same,TGI,CCRF-CEM leukemia,40.5 µM
same,TGI,SNB-75 CNS,74.5 µM
same,TGI,U251 CNS,28.4 µM
same,TGI,HCT-116 colon,34.7 µM
same,TGI,MOLT-4 leukemia,42.4 µM
same,TGI,NCI-H522 lung,24.1 µM
same,TGI,RPMI-8226 leukemia,29.3 µM
same,TGI,EKVX NSCLC,39.1 µM
same,TGI,OVCAR-8 ovarian,> 100 µM
same,TGI,KM12 colon,33.9 µM
same,TGI,NCI-H460 lung,43.9 µM
same,TGI,HOP-18 NSCLC,34.9 µM
same,TGI,DLD-1 colon,61.4 µM
same,TGI,HOP-62 NSCLC,86.4 µM
same,TGI,ACHN renal,32.7 µM
same,TGI,UO-31 renal,54.3 µM
same,TGI,A498 renal,32.7 µM
same,TGI,XF 498 CNS,28.8 µM
same,TGI,SNB-19 CNS,68.1 µM
same,TGI,HT29 colon,25 µM
same,TGI,KM20L2 colon,40.2 µM
same,TGI,M14 melanoma,34.5 µM
same,TGI,SN12C renal,46 µM
same,TGI,MALME-3M melanoma,44.6 µM
same,TGI,786-0 renal,40 µM
same,TGI,SK-MEL-28 melanoma,> 100 µM
same,TGI,RXF 393 renal,52.8 µM
same,TGI,HCC-2998 colon,> 100 µM
same,TGI,SK-MEL-5 melanoma,32.5 µM
same,TGI,M19-MEL melanoma,> 100 µM
same,TGI,SNB-78 CNS,75.7 µM
same,TGI,SF-268 CNS,62.1 µM
same,TGI,A549 NSCLC,94.3 µM
same,TGI,SF-295 CNS,> 100 µM
same,TGI,SK-OV-3 ovarian,> 100 µM
same,TGI,OVCAR-5 ovarian,33.8 µM
same,TGI,K-562 leukemia,36 µM
same,TGI,TK-10 renal,59.7 µM
same,TGI,SK-MEL-2 melanoma,37.9 µM
COc1c(C)c2c(c(C)c1Cl)Oc1c(C=O)c(O)c(Cl)c(C)c1C(=O)O2,TGI,NCI-H226 lung,94.6 µM
same,TGI,LXFL 529 NSCLC,82.9 µM
same,TGI,HL-60(TB) leukemia,57.8 µM
same,TGI,UACC-257 melanoma,> 100 µM
same,TGI,IGROV1 ovarian,83.8 µM
same,TGI,SW-620 colon,> 100 µM
same,TGI,SF-539 CNS,39.7 µM
same,TGI,CCRF-CEM leukemia,72.5 µM
same,TGI,COLO 205 colon,66.4 µM
same,TGI,SNB-75 CNS,79.7 µM
same,TGI,U251 CNS,44.9 µM
same,TGI,HCT-116 colon,61.9 µM
same,TGI,MOLT-4 leukemia,65.2 µM
same,TGI,NCI-H522 lung,96.4 µM
same,TGI,RPMI-8226 leukemia,> 100 µM
same,TGI,EKVX NSCLC,46.2 µM
same,TGI,OVCAR-8 ovarian,> 100 µM
same,TGI,KM12 colon,> 100 µM
same,TGI,NCI-H460 lung,> 100 µM
same,TGI,DLD-1 colon,> 100 µM
same,TGI,HOP-62 NSCLC,93.7 µM
same,TGI,ACHN renal,69.7 µM
same,TGI,A498 renal,58.8 µM
same,TGI,XF 498 CNS,22.7 µM
same,TGI,HT29 colon,> 100 µM
same,TGI,OVCAR-3 ovarian,30.8 µM
same,TGI,KM20L2 colon,82.9 µM
same,TGI,M14 melanoma,> 100 µM
same,TGI,SN12C renal,> 100 µM
same,TGI,MALME-3M melanoma,61 µM
same,TGI,DMS 273 small cell lung,70.5 µM
same,TGI,LOX IMVI melanoma,90.7 µM
same,TGI,786-0 renal,> 100 µM
same,TGI,UACC-62 melanoma,63 µM
same,TGI,HCC-2998 colon,69.8 µM
same,TGI,SK-MEL-5 melanoma,> 100 µM
same,TGI,DMS 114 small cell lung,79.1 µM
same,TGI,M19-MEL melanoma,> 100 µM
same,TGI,SNB-78 CNS,54.7 µM
same,TGI,SF-268 CNS,> 100 µM
same,TGI,CAKI-1 renal,> 100 µM
same,TGI,A549 NSCLC,> 100 µM
same,TGI,SF-295 CNS,> 100 µM
same,TGI,SK-OV-3 ovarian,> 100 µM
same,TGI,OVCAR-5 ovarian,78.8 µM
same,TGI,K-562 leukemia,97 µM
same,TGI,SR leukemia,89.4 µM
same,TGI,TK-10 renal,> 100 µM
same,TGI,NCI-H23 lung,45.2 µM
N#CC(C#N)=c1[nH]c2cccc3c2-c2c(cccc2c3=C(C#N)C#N)[nH]1,TGI,NCI-H226 lung,> 100 µM
same,TGI,LXFL 529 NSCLC,> 100 µM
same,TGI,HL-60(TB) leukemia,> 100 µM
same,TGI,UACC-257 melanoma,> 100 µM
same,TGI,IGROV1 ovarian,> 100 µM
same,TGI,SW-620 colon,> 100 µM
same,TGI,SF-539 CNS,> 100 µM
same,TGI,CCRF-CEM leukemia,> 100 µM
same,TGI,COLO 205 colon,> 100 µM
same,TGI,SNB-75 CNS,> 100 µM
same,TGI,OVCAR-4 ovarian,> 100 µM
same,TGI,U251 CNS,> 100 µM
same,TGI,HCT-116 colon,> 100 µM
same,TGI,MOLT-4 leukemia,> 100 µM
same,TGI,NCI-H522 lung,> 100 µM
same,TGI,RPMI-8226 leukemia,> 100 µM
same,TGI,EKVX NSCLC,> 100 µM
same,TGI,OVCAR-8 ovarian,> 100 µM
same,TGI,KM12 colon,> 100 µM
same,TGI,HCT-15 colon,> 100 µM
same,TGI,NCI-H460 lung,> 100 µM
same,TGI,HOP-18 NSCLC,> 100 µM
same,TGI,HOP-92 NSCLC,> 100 µM
same,TGI,DLD-1 colon,> 100 µM
same,TGI,HOP-62 NSCLC,> 100 µM
same,TGI,UO-31 renal,> 100 µM
same,TGI,A498 renal,> 100 µM
same,TGI,XF 498 CNS,> 100 µM
same,TGI,SNB-19 CNS,> 100 µM
same,TGI,HT29 colon,> 100 µM
same,TGI,OVCAR-3 ovarian,> 100 µM
same,TGI,KM20L2 colon,> 100 µM
same,TGI,M14 melanoma,> 100 µM
same,TGI,SN12C renal,> 100 µM
same,TGI,MALME-3M melanoma,> 100 µM
same,TGI,DMS 273 small cell lung,> 100 µM
same,TGI,LOX IMVI melanoma,> 100 µM
same,TGI,786-0 renal,> 100 µM
same,TGI,UACC-62 melanoma,> 100 µM
same,TGI,RXF 393 renal,> 100 µM
same,TGI,HCC-2998 colon,> 100 µM
same,TGI,SK-MEL-5 melanoma,> 100 µM
same,TGI,DMS 114 small cell lung,> 100 µM
same,TGI,SNB-78 CNS,> 100 µM
same,TGI,SF-268 CNS,> 100 µM
same,TGI,CAKI-1 renal,> 100 µM
same,TGI,A549 NSCLC,> 100 µM
same,TGI,SF-295 CNS,> 100 µM
same,TGI,SK-OV-3 ovarian,> 100 µM
same,TGI,OVCAR-5 ovarian,> 100 µM
same,TGI,K-562 leukemia,> 100 µM
same,TGI,SR leukemia,> 100 µM
same,TGI,TK-10 renal,> 100 µM
same,TGI,NCI-H23 lung,> 100 µM
CC1=C(C(=O)Nc2c(C)cccc2C)C(c2ccccc2Cl)C(C(=O)Nc2c(C)cccc2C)=C(C)N1,TGI,NCI-H226 lung,> 100 µM
same,TGI,LXFL 529 NSCLC,> 100 µM
same,TGI,HL-60(TB) leukemia,> 100 µM
same,TGI,UACC-257 melanoma,> 100 µM
same,TGI,IGROV1 ovarian,> 100 µM
same,TGI,SW-620 colon,> 100 µM
same,TGI,SF-539 CNS,> 100 µM
same,TGI,CCRF-CEM leukemia,> 100 µM
same,TGI,COLO 205 colon,> 100 µM
same,TGI,SNB-75 CNS,> 100 µM
same,TGI,OVCAR-4 ovarian,> 100 µM
same,TGI,U251 CNS,> 100 µM
same,TGI,MOLT-4 leukemia,> 100 µM
same,TGI,NCI-H522 lung,> 100 µM
same,TGI,RPMI-8226 leukemia,> 100 µM
same,TGI,EKVX NSCLC,> 100 µM
same,TGI,OVCAR-8 ovarian,> 100 µM
same,TGI,KM12 colon,> 100 µM
same,TGI,NCI-H460 lung,> 100 µM
same,TGI,HOP-92 NSCLC,> 100 µM
same,TGI,DLD-1 colon,> 100 µM
same,TGI,HOP-62 NSCLC,> 100 µM
same,TGI,ACHN renal,> 100 µM
same,TGI,UO-31 renal,> 100 µM
same,TGI,A498 renal,> 100 µM
same,TGI,XF 498 CNS,> 100 µM
same,TGI,SNB-19 CNS,> 100 µM
same,TGI,HT29 colon,> 100 µM
same,TGI,OVCAR-3 ovarian,> 100 µM
same,TGI,KM20L2 colon,> 100 µM
same,TGI,M14 melanoma,> 100 µM
same,TGI,SN12C renal,> 100 µM
same,TGI,MALME-3M melanoma,> 100 µM
same,TGI,DMS 273 small cell lung,> 100 µM
same,TGI,LOX IMVI melanoma,> 100 µM
same,TGI,786-0 renal,> 100 µM
same,TGI,SK-MEL-28 melanoma,> 100 µM
same,TGI,RXF 393 renal,> 100 µM
same,TGI,HCC-2998 colon,> 100 µM
same,TGI,SK-MEL-5 melanoma,> 100 µM
same,TGI,DMS 114 small cell lung,> 100 µM
same,TGI,M19-MEL melanoma,> 100 µM
same,TGI,SNB-78 CNS,> 100 µM
same,TGI,SF-268 CNS,> 100 µM
same,TGI,CAKI-1 renal,> 100 µM
same,TGI,A549 NSCLC,> 100 µM
same,TGI,SF-295 CNS,> 100 µM
same,TGI,SK-OV-3 ovarian,> 100 µM
same,TGI,OVCAR-5 ovarian,> 100 µM
same,TGI,K-562 leukemia,> 100 µM
same,TGI,TK-10 renal,> 100 µM
same,TGI,NCI-H23 lung,> 100 µM
same,TGI,SK-MEL-2 melanoma,> 100 µM
